Like-named read-outs stand apart in the source and are kept apart here.
How the values were obtained:
[1] = Traditional melanin binding assay (equilibrium binding, Sips isotherm); details: for Target Capacity ± SE, traditional method (Sips isotherm): Bmax multiplied with 0.5 mg/mL melanin concentration of the MST assay; for n ± SE, traditional method (Sips isotherm): heterogeneity index; for n ± SE, traditional method (Sips isotherm) / Bmax ± SE, traditional method (Sips isotherm) / Kd: 1 mg/mL melanin, PBS pH 7.4, 37 °C; for Bmax ± SE, traditional method (Sips isotherm): maximum binding capacity; for Kd: read-out: Kd ± SE, traditional method (Sips isotherm)
Method: (§1) The traditional melanin binding assay was conducted with melanin from the porcine RPE-choroid. We used previously published methods for melanin isolation and drug binding. Fresh melanin suspension and test compound solutions were prepared before each experiment. The melanin suspension (in PBS, pH 7.4) was sonicated in a bath sonicator for 30 min (Elmasonic S 40 H, Elma Schmidbauer GmbH, Singen, Germany) before the experiment. The incubation with test compounds took place at 37 °C on a shaker (220 rpm), and the melanin concentration in the assay was 1 mg/mL (0.15 mg/well). In the control samples, PBS buffer (pH 7.4) was used instead of the melanin suspension. Three individual replicates were made for each experiment. After 20 h incubation, the samples were centrifuged at 20,000× g for 20 min, and supernatant containing the unbound ligand was collected for analysis.
(§2) Samples having an estimated concentration of 0.5 µM or higher were analyzed with ultra-high pressure liquid chromatography (UPLC) (Acquity UPLC, Waters, Milford, MA, USA) with UV detection (Photodiode Array Detector, Waters, MA, USA). The separation was carried out on a Luna Omega Polar C18 (1.6 μm, 2.1 × 50 mm^2) column (Phenomenex) at 30 °C. Injection volume was 4 µL. Gradient mode was used for all the compounds with an acetonitrile/15 mM phosphate buffer (pH 2) mobile phase. Gradient duration was 3−5 min depending on the sample (levofloxacin, terazosin, and papaverine).
(§3) All internal standards, namely levofloxacin D8, terazosin D8, and papaverine D3, were purchased from Toronto Research Chemicals (Toronto, ON, Canada). […] Injection volumes were 0.2 μL for terazosin, 0.3 µL for levofloxacin, and 0.15 µl for papaverine with a flow through needle injection system. The mobile phase consisted of 0.1% formic acid (Merck, Darmstadt, Germany) in ultrapure water (A) and 100% LC–MS grade acetonitrile (Honeywell, Seelze, Germany) (B). […] The gradient for levofloxacin was the same as for papaverine, but the total run time was 6 min. The flow rate was 0.3 mL/min for all the compounds.
(§4) Mass spectrometric measurements were carried out using a Waters Xevo TQ-S triple quadruple mass spectrometer coupled with an electrospray ionization (ESI) on a positive mode for all three compounds. Optimized MS-parameters were as follows: capillary 1.5 kV (terazosin and papaverine), 3.5 kV (levofloxacin), cone voltage 80 V (terazosin) and 8 V (terazosin D8), 22 V (papaverine and papaverine D3), 28 V (levofloxacin and levofloxacin D8), source temperature 150 °C, and desolvation temperature 500 °C (terazosin) or 450 °C (papaverine and levofloxacin). Nitrogen (AGA, Helsinki, Finland) was used as the desolvation gas (1000 L·h^−1 terazosin, 800 L·h^−1 papaverine and levofloxacin) and the cone gas (150 L·h^−1), argon (AGA, Helsinki, Finland) as the collision gas. Multiple reaction monitoring (MRM) mode was employed for quantification. […] The resulting data were analyzed with Waters MassLynx V4.1 software. To consider the effect of melanin on the analyses, separate samples containing only melanin in PBS (with no test compound) were also studied.
(§5) The binding parameters were determined with Sips isotherm (Equation (2)) as described by Manzanares et al.. B = (Bmax × [L]^n)/(Kd^n + [L]^n)(2) where B is the amount of bound drug (nmol·mg^−^1); Bmax is the maximum binding capacity (nmol·mg^−^1); [L] is the free drug concentration (µM); n is the heterogeneity index (assuming heterogeneity of the surface of the melanin particles); and Kd represents the dissociation constant (µM).

melanin [2] = assay: in vitro; details: for fraction unbound at 20 h, 1 µM: pig, pH 7.4
Method: as §1, §2, §3, §4, §5

[3] = Label-free microscale thermophoresis (MST) melanin binding assay; details: for melanin binder category in Figure 1a: comparison of MST with traditional assay
Method: Synthetic melanin was purchased from Sigma Aldrich (#M8631-100 mg). Melanin nanoparticles were prepared as described earlier by Fan et al., and low-binding pipette tips (Maxymum RecoveryTM pipet tips, Corning Incorporated, Salt Lake City, UT, USA) and tubes (No stick microtubes, Alpha Laboratories, Hampshire, UK) were used with both melanin and melanin nanoparticles. Briefly, melanin was dissolved into 1 N NaOH with a concentration of 2 mg/mL and stirred by vortexing. The solution was neutralized by adding an equal volume of 1 N HCl. […] After the final centrifugation, the resulting nanoparticles were suspended into a small volume of sterile water and freeze-dried for 48–72 h (ModulyoD-230, Thermo Savant, Holbrook, NY, USA), and stored at −20 °C until the binding assays.
Melanin binding of each of the 13 model compounds was determined (for the concentrations in the assay, see Table 1). The dilution series of drugs were prepared onto a PCR plate (4titude PCR Plate, Skirted, #4ti-0740, Brooks Life Sciences, Chelmsford, MA, USA) in phosphate buffered saline (PBS, pH 7.4). […] The compound dilutions (10 µL) were transferred into 0.2 mL PCR tube strips (#TBS0201, Bio-Rad Laboratories, Inc., Hercules, CA, USA), and an equal volume of 1 mg/mL melanin nanoparticle dilution was added, resulting in a final melanin concentration of 0.5 mg/mL. At least three biological replicates (individually incubated dilution series) were prepared for each compound (n = 3–5). A reference sample containing only melanin nanoparticles and PBS (pH 7.4) was included in each assay to determine the unbound state in the thermophoresis experiment. Melanin nanoparticles were incubated with the compounds at room temperature for at least 2 h.
After >2 h incubation, the melanin–ligand complexes were mixed gently with a pipette to ensure melanin solution homogeneity and then transferred into capillaries (Monolith NT.115 Premium capillaries, #MOK025, NanoTemper Technologies GmbH, München, Germany). The samples were analyzed with a Monolith NT.115 pico device using MO.Control Software (both from NanoTemper Technologies GmbH, München, Germany) using nano-blue excitation, LED light adjusted to 60% excitation power, and infrared laser (MST power) set to high. […] The equation is based on the Langmuir binding isotherm. […] Equation (1) is a follows:(1) f(c)=Unbound+(Bound−Unbound)×c+c(target)+Kd−(c+c(target)+Kd)^2−4c×c(target)/2c(target) where f(c) is the fraction bound at a given ligand concentration c. Unbound is either the normalized fluorescence signal (Fnorm; MST mode) or raw fluorescence counts (initial fluorescence mode) of the target alone. Bound is either the normalized fluorescence signal or raw fluorescence counts (initial fluorescence mode) of the melanin–ligand complex. Kd is the dissociation constant or binding affinity, and c (target) is the final concentration of the target in the assay.
The normalized fluorescence is the ratio of relative fluorescence of the selected region after heating (hot region) and relative initial fluorescence before the heating (cold region, i.e., relative fluorescence values before the infrared laser was switched on). The MST traces displaying the changes in the relative fluorescence over time (heating) with the selected hot and cold regions are presented in the Supplementary Materials. In the case of ligand-induced changes in the initial raw fluorescence counts, the raw fluorescence counts prior to the heating were used (initial fluorescence mode). If the ligand-induced fluorescence changes were not observed, the normalized fluorescence signals (MST mode) were used to determine the Kd (for additional information, see the Supplementary Materials). […] Affinity Analysis Software.
Kd determination strategies. The Kd values were tested in both initial fluorescence and the above
described MST modes within the MO Affinity Analysis Software (Fig. S1, Table S1) and the Kd values

[4] = Prediction of unbound ligand fraction in vivo (human RPE-choroid); details: class by predicted fraction unbound in vivo, human RPE-choroid
Method: (§6) Unbound ligand fractions in vivo were calculated considering melanin binding as the only driver of nonspecific tissue binding.
(§7) Linear regression was used to describe the relationship between the Kd values obtained with the MST and the predicted unbound ligand fractions in human RPE-choroid obtained with calculations described above.
(§8) The Kd values obtained with MST consider only one class of binding site, whereas the Sips isotherm (the traditional binding assay) depicts different binding energies and binding sites. […] This approach is relevant to evaluate the melanin binding.

melanin [5] = assay: as above; details: human
Method: as §6, §7, §8

[6] = parameters: method as in PMID 26741026, PMID 29859954; details: from previous studies, ref [11],[16], cited from earlier work; for Kd: read-out: Kd ± SE, traditional method (Sips isotherm); for n ± SE, traditional method (Sips isotherm): heterogeneity index; for Bmax ± SE, traditional method (Sips isotherm): maximum binding capacity
[7] = monkeys and humans; ref [10]; cited from earlier work
[8] = average of the two high binders; 34 compounds in cassette; melanin 3.6 mg/mL; data of Pelkonen et al. [6]
Method: as §6

[9] = 0.5 mg/mL (12.5 µM) melanin nanoparticles, PBS pH 7.4, room temperature, 68% confidence, initial fluorescence mode for compounds marked *, otherwise MST mode, read-out: Kd ± Kd Confidence (MST)
[10] = Table S2, normalized fluorescence, 60% excitation power, read-out: Kd, MST mode (Fnorm)
[11] = Table S2, raw fluorescence counts before heating, 60% excitation power, read-out: Kd, initial fluorescence mode (converted)
[12] = human RPE-choroid (predicted), 34.8 mg/mL melanin

Compound | Target Capacity ± SE, traditional method (Sips isotherm) [1] | fraction unbound at 20 h, 1 µM (melanin [2]) | Kd [3, 9] | Kd [3, 10] | fraction unbound at 1 µM (melanin [5]; [12]) | Kd [3, 11] | Melanin binding class based on traditional assay [4] | n ± SE, traditional method (Sips isotherm) [6] | Bmax ± SE, traditional method (Sips isotherm) [6] | also measured
CC(C)(C)NCC(O)COc1cccc2c1CC(O)C(O)C2 (centres unmarked) [Nadolol] | 34 ± 12 µM |  | 200 ± 33 µM | 260 µM | 0.08 | 200 µM | intermediate | 0.94 ± 0.05 | 68 ± 24 nmol/mg | Fraction Unbound in Vitro (%) (1 mg/mL Melanin) ([1]; pig, 20 h, 1 µM, pH 7.4): 78%; Kd [6]: 340 ± 200 µM
O=C(O)Cc1ccccc1Nc1c(Cl)cccc1Cl [Diclofenac] |  |  |  |  |  |  |  |  |  | Kd ± Kd Confidence (MST) ([3]; 0.5 mg/mL (12.5 µM) melanin nanoparticles, PBS pH 7.4, room temperature, 68% confidence, initial fluorescence mode for compounds marked *, otherwise MST mode): Kd could not be determined; Melanin binding class based on Kd from MST ([3]; class by Kd (MST)): low; melanin binder category in Figure 1a [3]: Weak melanin binders; Kd ± SE, traditional method (Sips isotherm) [6]: no binding ^1
COc1ccc(Cc2nccc3cc(OC)c(OC)cc23)cc1OC [Papaverine] | 33 ± 4 µM | 0.15 | 28 ± 23 µM | 93 µM |  | 28 µM | high |  |  | n ± SE, traditional method (Sips isotherm) ([1]; 20 h): 0.715 ± 0.015; Bmax ± SE, traditional method (Sips isotherm) ([1]; 20 h): 66 ± 8 nmol/mg; Kd ([1]; 20 h): 66 ± 18 µM; fraction unbound at 1 µM (melanin [5]): 0.0013
CC(C)NCC(O)COc1ccc(CCOCC2CC2)cc1 (centres unmarked) [betaxolol] |  |  |  |  |  |  |  |  |  | concentration in pigmented eye tissues compared to neighboring non-pigmented tissues [7]: 20–150 fold
Clc1ccc2nsnc2c1NC1=NCCN1 [tizanidine] |  |  |  |  |  |  |  |  |  | unbound fraction in cassette assay compared to single compound incubation [8]: 2.1 fold
C=C[C@H]1C[N@@]2CC[C@H]1C[C@@H]2[C@@H](O)c1ccnc2ccc(OC)cc12 [Quinidine] |  |  |  |  |  |  |  |  |  | fraction unbound (melanin [2]): 0.16
CC(C)(C)NC[C@H](O)COc1nsnc1N1CCOCC1 [Timolol] | 19.5 ± 3 µM | 0.71 | 260 ± 128 µM | 260 µM | 0.057 |  | intermediate | 0.95 ± 0.03 | 39 ± 6 nmol/mg | Kd [6]: 120 ± 30 µM
CC1(C)S[C@@H]2[C@H](NC(=O)Cc3ccccc3)C(=O)N2[C@H]1C(=O)O [Penicillin G] |  |  |  |  |  |  |  |  |  | fraction unbound (melanin [2]): 0.092; fraction unbound (melanin [5]; [12]): 0.0029

Second part, led by results:

Target Capacity ± SE, traditional method (Sips isotherm) [1] | fraction unbound at 20 h, 1 µM (melanin [2]) | Kd [3, 9] | Kd [3, 10] | fraction unbound at 1 µM (melanin [5]; [12]) | Compound | Kd [3, 11] | Melanin binding class based on traditional assay [4] | n ± SE, traditional method (Sips isotherm) [6] | Bmax ± SE, traditional method (Sips isotherm) [6] | also measured
56 ± 6.5 µM | 0.029 | 29 ± 28 µM | 96 µM | 0.00012 | COc1cc2nc(N3CCN(C(=O)C4CCCO4)CC3)nc(N)c2cc1OC (centres unmarked) [Terazosin] | 29 µM | extreme |  |  | n ± SE, traditional method (Sips isotherm) ([1]; 20 h): 0.64 ± 0.018; Bmax ± SE, traditional method (Sips isotherm) ([1]; 20 h): 112 ± 13 nmol/mg; Kd ([1]; 20 h): 46 ± 16 µM
190 ± 20 µM | 0.0041 | 0.8 µM | 0.8 µM | 1.2e-05 | CCN(CC)CCCC(C)Nc1ccnc2cc(Cl)ccc12 (centres unmarked) [Chloroquine] |  | extreme | 0.605 ± 0.012 | 380 ± 40 nmol/mg | Kd [6]: 76 ± 23 µM
88 ± 30 µM | 0.32 |  |  | 0.009 | CC(C)NCC(O)COc1cccc2ccccc12 (centres unmarked) [Propranolol] |  | high | 0.89 ± 0.05 | 176 ± 60 nmol/mg | 
 |  | 3500 µM | > 10000 µM |  | CN(Cc1cnc2nc(N)nc(N)c2n1)c1ccc(C(=O)N[C@@H](CCC(=O)O)C(=O)O)cc1 [Methotrexate] | 3500 µM | low |  |  | fraction unbound (melanin [2]): 0.98; melanin binder category in Figure 1a [3]: Weak melanin binders; Kd ± SE, traditional method (Sips isotherm) [6]: no binding ^1; fraction unbound (melanin [5]; [12]): 0.54

Source: article PMC7355663, “Microscale Thermophoresis as a Screening Tool to Predict Melanin Binding of Drugs” (Pharmaceutics, 2020)
